Ki and IC50 data for 11 compounds are collected here from US8815877B2, “Serine/threonine kinase inhibitors” (Genentech, Inc., priority 2011, dated 2014).

Assay [1] has as its target T1, human recombinant GST-PAK1-KD protein (Homo sapiens, UniProt Q13153).
T1 construct: residues #249-545 of human PAK1, UniProtKP/Swiss Q13153; made in house; host or cells: Sf9 insect cells (pAcGP67 baculovirus expression vector)
Kind of assay: GST-PAK1-KD (Kinase Domain) IC50 biochemical assay (microfluidic mobility shift). The conditions noted are these: GST-PAK1-KD inhibition assay. How it is done: GST-PAK1-KD (Kinase Domain) IC50 Biochemical Assay Protocol
Activity of human recombinant GST-PAK1-KD protein was assessed in vitro assay by observing the phosphorylation of a fluorogenic peptide substrate.
The peptide substrate is a consensus sequence based on various PAK1 substrates reported in the scientific literature. […] Incubations were carried out at 22° C. in MatriCal MP101 384-well Metriplates™. […] Following the 30-minute incubation, the assay mixtures were quenched by the addition of 3 μL of 250 mM EDTA, and the substrate and phosphorylated product were separated by capillary electrophoresis and detected using LabChip® Caliper 3000 (Caliper Life Sciences).

Assay [2] has as its system MEK1 phosphorylation at S298. Nature of the assay: Cellular PAK IC50 assay: MEK1 (S298) phosphorylation by HTRF in EBC1 cells. The note with it: Homo sapiens, EBC-1, 2 h treatment, media containing 0.1% FBS. The format is cell-based. How it is done: Cellular PAK IC50 Assay Protocol
Group I PAKs (PAK1-3) are activated upon binding to the Rho GTPases, Rac 1 and Cdc42. Activated group I PAKs phosphorylate MEK1 at Serine 298 (S298), one of the two sites in the catalytic domain that is important for stable association between Raf and MEK1 and subsequent MAPK activation. The inhibition of group I PAKs in EBC1 cells is assessed by detecting changes in the level of MEK1 phosphorylation at S298 using homogenous time-resolved fluorescence (HTRF). Inhibitory activity was estimated by treating 2×10^4 EBC1 cells for 2 h with PAK inhibitors in media containing 0.1% FBS. Following inhibitor treatment, cells were lysed with 25 μL of 1× cellular kinase lysis buffer (Cisbio) containing 1× cellular kinase blocking reagent (Cisbio). Cellular lysis was carried out at 4° C. for 2 h with constant shaking before lysate (16 μL) was transferred to white 384-well ProxiPlates™ (Perkin Elmer). Anti-total MEK1 antibody labeled with Europium cryptate donor (1 ng/well) (Cell Signaling Technologies catalog number 2352) and anti-phospho MEK1 (S298) antibody labeled with d2 acceptor (Cell Signaling Technologies catalog number 9128) (10 ng/well) were prepared in 1× detection buffer (CisBio) and added to each well of the assay plate and allowed to incubate at RT overnight. The following day the fluorescence emission from each well was measured in EnVision® (Perkin Elmer) at an excitation of 330 nm and dual emission wavelengths of 615 nm and 665 nm. The signal in each well at 665 nm was multiplied by 10,000 and divided by the signal in the same well at 615 nm to obtain a ratio. Ratio values ([665*10,000]÷615) were plotted as a function of the concentration of compound to determine IC50 values.
In general terms: TR-FRET usually uses a lanthanide donor and a delayed reading to cut background.

T1 sequence (Q13153 249-545): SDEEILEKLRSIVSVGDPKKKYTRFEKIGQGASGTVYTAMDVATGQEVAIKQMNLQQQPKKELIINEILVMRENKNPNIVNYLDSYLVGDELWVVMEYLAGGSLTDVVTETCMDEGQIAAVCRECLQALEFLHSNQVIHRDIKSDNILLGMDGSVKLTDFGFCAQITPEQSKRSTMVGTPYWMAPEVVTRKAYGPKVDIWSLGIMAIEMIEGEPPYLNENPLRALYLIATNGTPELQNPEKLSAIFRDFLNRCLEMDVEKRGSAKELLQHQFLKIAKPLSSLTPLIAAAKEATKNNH

The Ki is the equilibrium dissociation constant of an inhibitor or competing ligand from its target. In general, IC50 refers to the concentration that inhibits the measured activity by half. A high value points to lower potency. Turning to `C[C@H](Nc1nccc(Nc2cc(C3CC3)[nH]n2)n1)c1nccc2[nH]ccc12` [Compound I-4, N^2-((S)-1-(1H-pyrrolo[3,2-c]pyridin-4-yl)ethyl)-N^4-(5-cyclopropyl-1H-pyrazol-3-yl)pyrimidine-2,4-diamine], the Ki in assay [1] turned out to be 0.06 µM. This compound also displayed a half-inhibitory concentration (IC50) in assay [2] of 0.325 µM. As to `c1cc(Nc2cc(C3CC3)[nH]n2)nc(NCc2cnc3[nH]ccc3c2)n1` [Compound I-6, N^2-((1H-Pyrrolo[2,3-b]pyridin-5-yl)methyl)-N^4-(5-cyclopropyl-1H-pyrazol-3-yl)pyrimidine-2,4-diamine], the Ki in assay [1] is 0.072 µM. Also, the midpoint of inhibition in assay [2], the IC50, lay at 0.709 µM. The like results for `C[C@H](Nc1nccc(Nc2cc(C3CC3)[nH]n2)n1)c1cc2cc[nH]c2cn1` [Compound I-7, (S)—N^2-(1-(1H-pyrrolo[2,3-c]pyridin-5-yl)ethyl)-N^4-(5-cyclopropyl-1H-pyrazol-3-yl)pyrimidine-2,4-diamine] were, in that order, 0.005 µM and 0.0684 µM. Regarding `CN(Cc1ccc2[nH]ccc2n1)c1nccc(Nc2cc(C3CC3)[nH]n2)n1` [Compound I-10, N^2-((1H-pyrrolo[3,2-b]pyridin-5-yl)methyl)-N^4-(5-cyclopropyl-1H-pyrazol-3-yl)-N^2-methylpyrimidine-2,4-diamine], in assay [1], the Ki was 0.067 µM. In addition, 1.1 µM corresponded to half-maximal inhibition in assay [2] (IC50). On the same counts, the results for `C[C@H](Nc1nccc(Nc2cc(C3CC3)[nH]n2)n1)c1ccc2[nH]ccc2n1` [Compound I-12, (S)—N^2-(1-(1H-pyrrolo[3,2-b]pyridin-5-yl)ethyl)-N^4-(5-cyclopropyl-1H-pyrazol-3-yl)pyrimidine-2,4-diamine] are 0.016 µM and 0.0455 µM. On the same counts, the results for `C[C@H](Nc1nccc(Nc2cc(C3CC(F)(F)C3)[nH]n2)n1)c1ccc2[nH]ccc2n1` [Compound I-16, (S)—N^2-(1-(1H-pyrrolo[3,2-b]pyridin-5-yl)ethyl)-N^4-(5-(3,3-difluorocyclobutyl)-1H-pyrazol-3-yl)pyrimidine-2,4-diamine] are 0.022 µM and 0.0726 µM. The like results for `C[C@@H](c1ccc2[nH]ccc2n1)N(C)c1nccc(Nc2cc(C3CC3)[nH]n2)n1` [Compound I-18, (S)—N^2-(1-(1H-pyrrolo[3,2-b]pyridin-5-yl)ethyl)-N^4-(5-cyclopropyl-1H-pyrazol-3-yl)-N^2-methylpyrimidine-2,4-diamine] were, in that order, 0.024 µM and 0.221 µM. On to `C[C@@H](c1ccc2[nH]ccc2n1)N(C)c1nccc(Nc2cc([C@@H]3C[C@@H]3F)[nH]n2)n1` [Compound I-24, N^2-((S)-1-(1H-pyrrolo[3,2-b]pyridin-5-yl)ethyl)-N^4-(5-((1S,2S)-2-fluorocyclopropyl)-1H-pyrazol-3-yl)-N^2-methylpyrimidine-2,4-diamine], for which, in assay [1], the Ki was 0.052 µM. In addition, the midpoint of inhibition in assay [2], the IC50, lay at 0.191 µM. On the same counts, the results for `C[C@@H](c1ccc2[nH]ccc2n1)N(C)c1nccc(Nc2cc([C@H]3C[C@@H]3F)[nH]n2)n1` [Compound I-28, N^2—((S)-1-(1H-pyrrolo[3,2-b]pyridin-5-yl)ethyl)-N^4-(5-((1R,2S)-2-fluorocyclopropyl)-1H-pyrazol-3-yl)-N^2-methylpyrimidine-2,4-diamine] are 0.008 µM and 0.0531 µM. As for `c1cc(Nc2cc(C3CC3)[nH]n2)nc(NCc2cncc3[nH]cnc23)n1` [Compound I-33, N^2-((3H-imidazo[4,5-c]pyridin-7-yl)methyl)-N^4-(5-cyclopropyl-1H-pyrazol-3-yl)pyrimidine-2,4-diamine], the Ki in assay [1] was determined as 0.494 µM. On the same count and under the same terms, for `C[C@H](Nc1nccc(Nc2cc(C3CC3)[nH]n2)n1)c1ncc2[nH]ccc2n1` [Compound I-35, (S)—N^2-(1-(5H-pyrrolo[3,2-d]pyrimidin-2-yl)ethyl)-N^4-(5-cyclopropyl-1H-pyrazol-3-yl)pyrimidine-2,4-diamine] the value was 0.003 µM.
